One test has as its target Angiotensin II receptor. The test can be described thus: In vitro angiotensin II mesenteric artery receptor binding assay (test 1). The conditions noted are these: rat mesenteric artery membrane fraction, 0.2 nM 125I-Ang II, 22°C, 90 minutes. The protocol:
I) In vitro angiotensin II mesenteric artery receptor binding assay
According to the method (1) by Gunther et al., a membrane fraction was prepared from mesenteric artery of male rat, […] protein equivalent of it and 0.2 nM ^125I-Ang II as well as various concentrations of test compounds were incubated at 22°C for 90 minutes in an incubation buffer (50 mM Tris-HCl, 120 mM NaCl, 5 mM MgCl2. 0.25% bovine serum albumin, pH 7.2) (reaction volume; 200 µl). The incubated was cooled, and the reaction was stopped by addition of ice-cooled phosphate buffer (10 mM phosphate, 140 mM NaCI, pH 7.4, hereinafter referred to as PBS), and then the reaction solution was filtered through a glass fiber filter (Whatman CF/B), the filter was washed, dried, and then the radioactivity of captured ^125I-angiotensin II which bound to the receptor was measured by a γ-counter. Non-specific bound amount was obtained from the reaction in the presence of 1 µM of unlabeled angiotensin II. […] Res., 17:278-286, 1980].

In test [1] the test system is angiotensin II constriction in an isolated rabbit thoracic aorta. As to the kind of experiment: Antagonism to angiotensin II constriction in an isolated rabbit thoracic aorta (test 3). Conditions: test compound 10^-6 M for 20 minutes. The protocol:
3) Antagonism to angiotensin II constriction in an isolated rabbit thoracic aorta
A rectangular strip-like sample of thoracic aorta isolated from an anaesthetized rabbit was prepared, and the sample was suspended at 2.0 g of loaded tension in a Magnus tube filled with Krebs-Henseleitoid nutrition solution which was well aerated with 95% O2-5% CO2, and the constriction tension was measured using an isometric transducer. After the tension of the sample at rest became stable, accumulative administration of angiotensin II was carried out to obtain a concentration-action curve. Thereafter, the sample was washed with the same nutrition solution, then treated with test compound (10^-6 M) for 20 minutes to obtain again a concentration-action curve of angiotensin II. The results were obtained as followed: generated maximum tension at the first accumulative administration of angiotensin II was regarded as 100 %, and the 50 % effective concentration (ED50) was obtained in the presence or absence of the test compound, and pA2 value was calculated according to the following equations: • pA2=-logKB KB=C/{(A'/A)-1} • C; concentration of the test compound (M) • A'; ED50 in the presence of test compound (M) • A; ED50 in the absence of the test compound (M)

Test [2] relates to blood pressure increase by angiotensin II. As to the kind of experiment: Antagonism to blood pressure increase by angiotensin II in a spine destroyed (pithed) rat (test 4). It counts as in vivo, Wistar rat. The conditions noted are these: intravenous administration, 3µg/kg angiotensin II, read-out: Inhibition of blood pressure increase by angiotensin II in pithed rat ED50(mg/kg) (test 4). From the text:
4) Antagonism to blood pressure increasing by angiotensin II in a spine destroyed rat
Wistar rat anaesthetized with pentobarbital was fixed at dorsal position, and a cannula for measuring blood pressure was inserted into sinister arteria carotis communis, and a cannula for administration of the test compound into dexter external jugular vein and a cannula for administration of angiotensin II into sinister external jugular vein, ambilateral nervus vagus was cut, and artificial respiration was carried out. A thin bar made of metal was stabbed into spinal column through sinister orbita to destroy spine. Blood pressure was recorded on polygraph via pressure transducer from an arterial cannula. After blood pressure was stable for more than 30 min., 3µg/kg of angiotensin II was administered intravenously four times every 15 min, and every 5 min. before the administration of angiotensin II from the second administration onward, a solvent, a lower dose of the test compound, and a higher dose of the test compound were administered intravenously in this order to observe the blood pressure increasing response by angiotensin II. ED50 values were calculated from the inhibiting rate when the first blood pressure increase by angiotensin II was regarded as 100 %.

With `CCCc1nc2c(=O)n3n(c(=O)c2n1Cc1ccc(-c2ccccc2-c2nn[nH]n2)cc1)CCCC3` [Compound No. 46, 2-n-propyl-5,6,7,8-tetrahydro-1-[(2'-(1H-tetrazol-5-yl)biphenyl-4-yl)methyl]-1H-1,3,4a,8a-tetraza-cyclopentanaphthalene-4,9-dione], the IC50 at Angiotensin II receptor was found to be 3.3 nM. Further, the “Inhibition of rabbit aorta constriction pA2 (test 3)” value (“Inhibition” below) in test [1] is given as 8.95.
`CCCc1nc2c(=O)n3n(c(=O)c2n1Cc1ccc(-c2ccccc2-c2nn[nH]n2)cc1)CC(C)C(C)C3` (stereo not drawn) [Compound No. 50, 6,7-dimethyl-2-n-propyl-5,6,7,8-tetrahydro-1-[(2'-(1H-tetrazol-5-yl)biphenyl-4-yl)methyl]-1H-1,3,4a,8a-tetraza-cyclopentanaphthalene-4,9-dione] registered an IC50 at Angiotensin II receptor of 5.3 nM. Also, the ED50 in test [2] was determined as 0.2 mg/kg.
On to `CCCCc1nc2c(=O)n3n(c(=O)c2n1Cc1ccc(-c2ccccc2-c2nn[nH]n2)cc1)CC(C)C(C)C3` (stereo not drawn) [Compound No. 51, 2-n-butyl-6,7-dimethyl-5,6,7,8-tetrahydro-1-[(2'-(1H-tetrazol-5-yl)biphenyl-4-yl)methyl]-1H-1,3,4a,8a-tetraza-cyclopentanaphthalene-4,9-dione], for which the IC50 at Angiotensin II receptor came out at 4.6 nM. For the same compound, in test [1], the “Inhibition” value was found to be 9.04. Moreover, the ED50 in test [2] was determined as 0.65 mg/kg.
Take `CCCCc1nc2c(=O)n3n(c(=O)c2n1Cc1ccc(-c2ccccc2-c2nn[nH]n2)cc1)CC=CC3` [Compound No. 71, 2-n-butyl-5,8-dihydro-1-[(2'-(1H-tetrazol-5-yl)biphenyl-4-yl)methyl]-1H-1,3,4a,8a-tetraza-cyclopentanaphthalene-4,9-dione]: on Angiotensin II receptor, the IC50 was found to be 7 nM. Also, the “Inhibition” value in test [1] is 9.09.
`CCCc1nc2c(=O)n3n(c(=O)c2n1Cc1ccc(-c2ccccc2-c2nn[nH]n2)cc1)C1C=CC3CC1` (stereo not drawn) [Compound No. 105, 5,8-dihydro-5,8-ethano-2-n-propyl-1-[(2'-(1H-tetrazol-5-yl)biphenyl-4-yl)methyl]-1H-1,3,4a,8a-tetraza-cyclopentanaphthalene-4,9-dione] showed an IC50 on Angiotensin II receptor of 1.5 nM. Further, the “Inhibition” value in test [1] came to 9.42. Besides, the ED50 in test [2] was determined as 0.1 mg/kg.
In the case of `CCCc1nc2c(=O)n3n(c(=O)c2n1Cc1ccc(-c2ccccc2-c2nn[nH]n2)cc1)C(C(=O)OCC)CCC3C` (stereo not drawn) [Compound No. 138, ethyl 4,9-dioxo-5-methyl-2-n-propyl-5,6,7,8-tetrahydro-1-[(2'-(1H-tetrazol-5-yl)biphenyl-4-yl)methyl]-1H-1,3,4a,8a-tetraza-cyclopentanaphthalene-8-carboxylate], at Angiotensin II receptor, the IC50 was determined as 4 nM. Also, in test [2], the ED50 was 0.096 mg/kg.
For the compound `CCCCc1nc2c(=O)n3n(c(=O)c2n1Cc1ccc(-c2ccccc2-c2nn[nH]n2)cc1)C1CCC3(C(=O)OCC)CC1` [Compound No. 196, ethyl 2-n-butyl-4,9-dioxo-5,8-ethano-5,6,7,8-tetrahydro-1-[{2'-(1H-tetrazol-5-yl)biphenyl-4-yl}methyl]-1H-1,3,4a,8a-tetraza-cyclopentanaphthalene-5-carboxylate], the IC50 at Angiotensin II receptor turned out to be 4.6 nM. Moreover, the ED50 in test [2] is 0.23 mg/kg.
`CCCc1nc2c(=O)n3n(c(=O)c2n1Cc1ccc(-c2ccccc2-c2nn[nH]n2)cc1)C(C)CCC3C(=O)N(CC)CC` (stereo not drawn) [Compound No. 203, 4,9-dioxo-8-methyl-2-n-propyl-5,6,7,8-tetrahydro-1-[{2'-(1H-tetrazol-5-yl)biphenyl-4-yl}methyl]-1H-1,3,4a,8a-tetraza-cyclopentanaphthalene-5-carboxy-N,N-diethylamide] showed an IC50 on Angiotensin II receptor of 1.9 nM. Also, in test [1], the “Inhibition” value stood at 10.0.
Compound `CCCCc1nc2c(=O)n3n(c(=O)c2n1Cc1ccc(-c2ccccc2-c2nnn[nH]2)cc1)C(C)CCC3C(=O)NC(C)(C)C` (stereo not drawn) [Compound No. 208, 2-n-butyl-4,9-dioxo-8-methyl-5,6,7,8-tetrahydro-1-[{2'-(1H-tetrazol-5-yl)biphenyl-4-yl}methyl]-1H-1,3,4a,8a-tetraza-cyclopentanaphthalene-5-carboxy-N-t-butylamide] displayed an IC50 on Angiotensin II receptor of 8.2 nM. The ED50 in test [2] came out at 0.12 mg/kg.
At Angiotensin II receptor, `CCCCc1nc2c(=O)n3n(c(=O)c2n1Cc1ccc(-c2ccccc2-c2nnn[nH]2)cc1)C1(CO)CCC3CC1` [Compound No. 222, 2-n-butyl-5,8-ethano-8-hydroxymethyl-5,6,7,8-tetrahydro-1-[{2'-(1H-tetrazol-5-yl)biphenyl-4-yl}methyl]-1H-1,3,4a,8a-tetraza-cyclopentanaphthalene-4,9-dione] showed an IC50 of 3 nM. Moreover, the ED50 in test [2] is 0.56 mg/kg.
The corresponding values for `CCCc1nc2c(=O)n3n(c(=O)c2n1Cc1ccc(-c2ccccc2-c2nnn[nH]2)cc1)C1CCC3(C(=O)N(CC)CC)CC1` [Compound No. 231, 4,9-dioxo-5,8-ethano-2-n-propyl-5,6,7,8-tetrahydro-1-[{2'-(1H-tetrazol-5-yl)biphenyl-4-yl}methyl]-1H-1,3,4a,8a-tetraza-cyclopentanaphthalene-5-carboxy-N,N-diethylamide] are 9.8 nM and 0.074 mg/kg.
`CCCCc1nc2c(=O)n3n(c(=O)c2n1Cc1ccc(-c2ccccc2-c2nn[nH]n2)cc1)C1CCC3(C(=O)NC(C)(C)C)CC1` [Compound No. 236, 2-n-butyl-4,9-dioxo-5,8-ethano-5,6,7,8-tetrahydro-1-[{2'-(1H-tetrazol-5-yl)biphenyl-4-yl}methyl]-1H-1,3,4a,8a-tetraza-cyclopentanaphthalene-5-carboxy-N-t-butylamide] had an IC50 at Angiotensin II receptor of 32 nM. The ED50 in test [2] was found to be 0.11 mg/kg.
`CCCc1nc2c(n1Cc1ccc(-c3ccccc3-c3nn[nH]n3)cc1)C(=O)N1CCCCN1C2` [Compound No. 366, 2-n-propyl-5,6,7,8-tetrahydro-1-[{2'-(1H-tetrazol-5-yl)biphenyl-4-yl}methyl]-1H,4H-1,3,4a,8a-tetraza-cyclopentanaphthalene-9-one] yielded an IC50 on Angiotensin II receptor of 32 nM. Moreover, the “Inhibition” value in test [1] amounted to 9.32.
`CCCc1nc2c(n1Cc1ccc(-c3ccccc3-c3nn[nH]n3)cc1)C(=O)N1C(C)CCC(C)N1C2` (stereo not drawn) [Compound No. 430, 5,8-dimethyl-2-n-propyl-5,6,7,8-tetrahydro-1-[{2'-(1H-tetrazol-5-yl)biphenyl-4-yl}methyl]-1H,4H-1,3,4a,8a-tetraza-cyclopentanaphthalene-9-one] returned an IC50 on Angiotensin II receptor of 3.9 nM. For the same compound, the “Inhibition” value in test [1] stood at 10.04.
On Angiotensin II receptor, `CCCCc1nc2c(=O)n3n(c(=O)c2n1Cc1ccc(-c2ccccc2-c2nn[nH]n2)cc1)CC(C)=C(C)C3` [compound 68, 2-n-butyl-5,8-dihydro-6,7-dimethyl-1-[(2'-(1H-tetrazol-5-yl)biphenyl-4-yl)methyl]-1H-1,3,4a,8a-tetraza-cyclopentanaphthalene-4,9-dione] returned an IC50 of 8.1 nM. The ED50 in test [2] was determined as 0.56 mg/kg.
In the case of `CCCCc1nc2c(=O)n3n(c(=O)c2n1Cc1ccc(-c2ccccc2-c2nn[nH]n2)cc1)C1C=CC3CC1` (stereo not drawn) [compound 106, 2-n-butyl-5,8-dihydro-5,8-ethano-1-[(2'-(1H-tetrazol-5-yl)biphenyl-4-yl)methyl]-1H-1,3,4a,8a-tetraza-cyclopentanaphthalene-4,9-dione], at Angiotensin II receptor, the IC50 turned out to be 3.8 nM. In addition, in test [1], the “Inhibition” value is reported as 9.2.
The corresponding values for `CCCCc1nc2c(=O)n3n(c(=O)c2n1Cc1ccc(-c2ccccc2-c2nn[nH]n2)cc1)C(C)CCC3C(=O)OCC` (stereo not drawn) [compound 169, ethyl 2-n-butyl-4,9-dioxo-8-methyl-5,6,7,8-tetrahydro-1-[{2'-(1H-tetrazol-5-yl)biphenyl-4-yl}methyl]-1H-1,3,4a,8a-tetraza-cyclopentanaphthalene-5-carboxylate] are 1.3 nM and 10.19.

As usually defined, the IC50 is the concentration at which inhibition is half-maximal. Read a low IC50 as greater potency in that assay.

The values are drawn from patent publication EP0609289B1, “IMIDAZOLE DERIVATIVES AND PHARMACEUTICAL COMPOSITIONS CONTAINING THE SAME” (THE UPJOHN COMPANY, priority 1991, dated 1993).
